Consider three molecules from ChEMBL document CHEMBL4813979.

The test system of assay [1] is Mus musculus. The assay is described as follows: Anti-colitis activity against DSS-induced BALB/c mouse model of subchronic relapsing colitis assessed as reduction in fecal blood at 100 mg/kg/day, ip administered on days 1 and 3 of second week during 2 weeks DSS challenge and measured at the end of 2nd week. The class given is functional, organism-based. Particulars: time 1.0 weeks.

The subject of assay [2] is Mus musculus. The assay is described as follows: Anti-colitis activity against DSS-induced BALB/c mouse model of subchronic relapsing colitis assessed as effect on colon length at 100 mg/kg/day, ip administered on days 1 and 3 of second week during 2 weeks DSS challenge and measured at the end of 2nd week. Particulars: time 1.0 weeks. The class given is functional, organism-based.

Assay [3] concerns Mus musculus. The assay is described as follows: Anti-colitis activity against DSS-induced BALB/c mouse model of subchronic relapsing colitis assessed as increase in body weight at 100 mg/kg/day, ip administered on days 1 and 3 of second week during 2 weeks DSS challenge and measured at the end of 2nd week. The class given is functional, organism-based. Particulars: time 1.0 weeks.

Assay [4] concerns Mus musculus. The assay is described as follows: Anti-colitis activity against DSS-induced BALB/c mouse model of subchronic relapsing colitis assessed as increase in softening of feces at 100 mg/kg/day, ip administered on days 1 and 3 of second week during 2 weeks DSS challenge and measured at the end of 2nd week. The format is functional, organism-based. Particulars: time 1.0 weeks.

Assay [5] has as its system Mus musculus. The assay is described as follows: Anti-colitis activity against DSS-induced BALB/c mouse model of subchronic relapsing colitis assessed as reduction in fecal blood at 100 mg/kg/day, po administered for 7 days in second week during 2 weeks DSS challenge and measured at the end of 2nd week. The class given is functional, organism-based. The settings on record: time 7.0 day.

Assay [6] concerns Mus musculus. The assay is described as follows: Anti-colitis activity against DSS-induced BALB/c mouse model of subchronic relapsing colitis assessed as increase in body weight at 100 mg/kg/day, po administered for 7 days in second week during 2 weeks DSS challenge and measured at the end of 2nd week. The class given is functional, organism-based. The settings on record: time 7.0 day.

Assay [7] concerns Mus musculus. The assay is described as follows: Anti-colitis activity against DSS-induced BALB/c mouse model of subchronic relapsing colitis assessed as decrease in colon weight to length ratio at 100 mg/kg/day, po administered for 7 days in second week during 2 weeks DSS challenge and measured at the end of 2nd week. The settings on record: time 7.0 day. The class given is functional, organism-based.

In assay [8] the test system is Mus musculus. Put plainly: Anti-colitis activity against DSS-induced BALB/c mouse model of subchronic relapsing colitis assessed as effect on colon length at 100 mg/kg/day, po administered for 7 days in second week during 2 weeks DSS challenge and measured at the end of 2nd week. The class given is functional, organism-based. The settings on record: time 7.0 day.
Assay [9] deals with Mus musculus. The assay is described as follows: Anti-colitis activity against DSS-induced BALB/c mouse model of subchronic relapsing colitis assessed as increase in softening of feces at 100 mg/kg/day, po administered for 7 days in second week during 2 weeks DSS challenge and measured at the end of 2nd week. The format is functional, organism-based. Particulars: time 7.0 day.

Assay [10] concerns the target Glycogen synthase kinase-3 beta (Mus musculus) (UniProt Q9WV60). Put plainly: Inhibition of GSK3-beta in mouse J774.1 cells assessed as reduction in LPS/IFN-gamma-induced NF-kappaB expression at 10 uM measured within 15 mins by Western blot analysis. The class given is cell-based. On the technique in general: In western blotting, separated proteins are transferred to a membrane and probed.

SMILES strings stand for the structures. Active and inactive are the calls of the source. The rule behind the calls is not given here.

Sequence of Glycogen synthase kinase-3 beta (Mus musculus) (Q9WV60 whole entry, looked up): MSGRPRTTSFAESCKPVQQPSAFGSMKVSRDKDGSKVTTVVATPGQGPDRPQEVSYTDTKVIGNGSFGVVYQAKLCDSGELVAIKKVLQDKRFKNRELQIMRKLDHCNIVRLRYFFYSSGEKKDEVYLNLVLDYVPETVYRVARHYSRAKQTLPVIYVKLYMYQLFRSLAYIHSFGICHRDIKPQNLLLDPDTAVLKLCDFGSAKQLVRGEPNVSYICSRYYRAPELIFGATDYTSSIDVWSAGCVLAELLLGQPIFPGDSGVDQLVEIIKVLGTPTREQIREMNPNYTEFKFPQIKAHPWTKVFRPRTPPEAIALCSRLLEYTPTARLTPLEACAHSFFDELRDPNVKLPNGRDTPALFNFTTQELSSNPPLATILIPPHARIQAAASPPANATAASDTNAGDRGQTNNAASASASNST

With `S=C(S)N1CCCC1`, the result in the assay on Mus musculus [1], with Mus musculus [3] and with Mus musculus [4] was Active. For the same molecule, the result in the assay with Mus musculus [2] was inactive.
As to `O=C(O)c1cc(/N=N/c2ccc(S(=O)(=O)Nc3ccccn3)cc2)ccc1O`, the outcome in the assay on Mus musculus [5], in the assay with Mus musculus [7] and in the assay with Mus musculus [9] was Active. The outcome in the assay with Mus musculus [6] and with Mus musculus [8] was inactive.
As to `C[S+]([O-])CCCCCCN=C=S` (stereo not given), the inhibition entry in assay [10] was “Active”.
